Assay results as given in US20240041042A1, “1-(PYRIDYL)-5-AZINYLPYRAZOLE DERIVATIVES, AND THEIR USE FOR CONTROL OF UNDESIRED PLANT GROWTH” (Bayer Aktiengesellschaft, priority 2020, published 2024).
Like-named read-outs stand apart in the source and are kept apart here.

Legend:
Assay type in all cases: in vivo
[1] = system: Abutilon theophrasti (ABUTH); assay: Pre-emergence herbicidal action against ABUTH; details: Dosage column 320 g/ha (title prints 3200 g/ha); scored visually after about 3 weeks; 100% = plants have died
Procedure, shortened: (§1)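 Pre-emergence soil-surface spray, WP/EC formulation, 0.5% additive, 600 l/ha water, rates of 320 g/ha or lower. Greenhouse, ~3 wk. Visual score, % of untreated control (100% = plants dead, 0% = like control).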

[2] = system: Alopecurus myosuroides (ALOMY); assay: Pre-emergence herbicidal action against ALOMY; details: scored visually after about 3 weeks, 100% = plants have died
Procedure, shortened: as §1

[3] = system: Amaranthus retroflexus (AMARE); assay: Pre-emergence herbicidal action against AMARE; details: visual scoring after about 3 weeks vs untreated controls
Procedure, shortened: as §1

Avena fatua (AVEFA) [4] = assay: Pre-emergence herbicidal action against AVEFA; details: 320 g/ha, visual scoring after about 3 weeks vs untreated controls
Procedure, shortened: as §1

[5] = system: Echinochloa crus-galli (ECHCG); assay: Pre-emergence herbicidal action against ECHCG
Procedure, shortened: as §1

Lolium rigidum (LOLRI) [6] = assay: Pre-emergence herbicidal action against LOLRI; details: dosage 320 g/ha
Procedure, shortened: as §1

[7] = system: Matricaria inodora (MATIN); assay: Pre-emergence herbicidal action against MATIN
Procedure, shortened: as §1

[8] = system: Pharbitis purpurea (PHBPU); assay: Pre-emergence herbicidal action against PHBPU
Procedure, shortened: as §1

[9] = system: Polygonum convolvulus (POLCO); assay: Pre-emergence herbicidal action against POLCO; details: dosage 320 g/ha
Procedure, shortened: as §1

Setaria viridis (SETVI) [10] = assay: Pre-emergence herbicidal action against SETVI
Procedure, shortened: as §1

[11] = system: Verconica persica (VERPE); assay: Pre-emergence herbicidal action against VERPE; details: dosage 320 g/ha
Procedure, shortened: as §1

Viola tricolor (VIOTR) = assay: Pre-emergence herbicidal action against VIOTR
Procedure, shortened: as §1

[12] = system: Abutilon theophrasti (ABUTH); assay: Post-emergence herbicidal action against ABUTH; details: 80 g/ha, visual rating about 3 weeks after treatment vs untreated controls (100% = plants have died, 0% = like control plants)
Procedure, shortened: (§2)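 Rates were 320 g/ha or below, applied as aqueous WP/EC spray with 0.5% additive (600 l/ha) onto one-leaf-stage plants. About 3 weeks later in the greenhouse, damage was scored visually against untreated plants on a 0–100% scale, where 100% means plants died.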

[13] = system: Alopecurus myosuroides (ALOMY); assay: Post-emergence herbicidal action against ALOMY; details: 80 g/ha, visual rating about 3 weeks after treatment vs untreated controls (100% = plants have died, 0% = like control plants)
Procedure, shortened: as §2

[14] = system: Amaranthus retroflexus (AMARE); assay: Post-emergence herbicidal action against AMARE; details: 80 g/ha, visual rating about 3 weeks after treatment vs untreated controls (100% = plants have died, 0% = like control plants)
Procedure, shortened: as §2

Avena fatua (AVEFA) [15] = assay: Post-emergence herbicidal action against AVEFA; details: 80 g/ha, visual rating about 3 weeks after treatment
Procedure, shortened: as §2

[16] = system: Echinochloa crus-galli (ECHCG); assay: Post-emergence herbicidal action against ECHCG; details: dosage 80 g/ha
Procedure, shortened: as §2

Lolium rigidum (LOLRI) [17] = assay: Post-emergence herbicidal action against LOLRI; details: dosage 80 g/ha
Procedure, shortened: as §2

[18] = system: Matricaria inodora (MATIN); assay: Post-emergence herbicidal action against MATIN; details: dosage 80 g/ha
Procedure, shortened: as §2

[19] = system: Pharbitis purpurea (PHBPU); assay: Post-emergence herbicidal action against PHBPU; details: dosage 80 g/ha
Procedure, shortened: as §2

[20] = system: Polygonum convolvulus (POLCO); assay: Post-emergence herbicidal action against POLCO; details: dosage 80 g/ha
Procedure, shortened: as §2

Setaria viridis (SETVI) [21] = assay: Post-emergence herbicidal action against SETVI; details: dosage 80 g/ha
Procedure, shortened: as §2

[22] = system: Verconica persica (VERPE); assay: Post-emergence herbicidal action against VERPE; details: dosage 80 g/ha
Procedure, shortened: as §2

Oryza sativa (ORYSA) = details: crop plant compatibility
Procedure, shortened: (§3)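 One-leaf-stage crops (2–3 wk post-sowing, sandy loam, greenhouse) sprayed on green parts; 0.5% additive, 600 l/ha water. Rated by eye ~3 wk later, % vs untreated; suffixes a/b/c mark different dosages.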

[23] = system: Triticum aestivum (TRZAS); details: crop plant compatibility, 20 g/ha, effect vs untreated controls
Procedure, shortened: as §3

Zea mays (ZEAMX) = details: 20 g/ha, ZEAMX, effect in comparison to untreated controls
Procedure, shortened: as §3

Compound: COC(=O)[C@H](C)COC(=O)COc1nn(-c2ccccn2)c(-c2cncc(F)c2)c1Cl [Example I-74]
- Pre-emergence action against ABUTH [1]: 90%
- Pre-emergence action against ALOMY ([2]; 80 g/ha): 80%
- Pre-emergence action against ALOMY ([2]; 320 g/ha): 100%
- Pre-emergence action against AMARE in % ([3]; 80 g/ha): 90%
- Pre-emergence action against AMARE in % ([3]; 320 g/ha): 100%
- Pre-emergence action against AVEFA in % (Avena fatua (AVEFA) [4]): 80%
- Pre-emergence action against ECHCG in % ([5]; dosage 80 g/ha): 80%
- Pre-emergence action against ECHCG in % ([5]; dosage 320 g/ha): 100%
- Pre-emergence action against LOLRI in % (Lolium rigidum (LOLRI) [6]): 100%
- Pre-emergence action against MATIN in % ([7]; dosage 80 g/ha): 90%
- Pre-emergence action against MATIN in % ([7]; dosage 320 g/ha): 90%
- Pre-emergence action against PHBPU in % ([8]; dosage 80 g/ha): 90%
- Pre-emergence action against PHBPU in % ([8]; dosage 320 g/ha): 90%
- Pre-emergence action against POLCO in % [9]: 100%
- Pre-emergence action against SETVI in % (Setaria viridis (SETVI) [10]; dosage 80 g/ha): 90%
- Pre-emergence action against SETVI in % (Setaria viridis (SETVI) [10]; dosage 320 g/ha): 100%
- Pre-emergence action against VERPE in % [11]: 100%
- Pre-emergence action against VIOTR in % (Viola tricolor (VIOTR); 320 g/ha, Viola tricolor): 100%
- Pre-emergence action against VIOTR in % (Viola tricolor (VIOTR); dosage 80 g/ha): 90%
- Post-emergence action against ABUTH in % [12]: 80%
- Post-emergence action against ALOMY in % [13]: 100%
- Post-emergence action against AMARE in % [14]: 80%
- Post-emergence action against AVEFA in % (Avena fatua (AVEFA) [15]): 90%
- Post-emergence action against ECHCG in % [16]: 90%
- Post-emergence action against LOLRI in % (Lolium rigidum (LOLRI) [17]): 90%
- Post-emergence action against MATIN in % [18]: 90%
- Post-emergence action against PHBPU in % [19]: 90%
- Post-emergence action against POLCO in % [20]: 90%
- Post-emergence action against SETVI in % (Setaria viridis (SETVI) [21]): 80%
- Post-emergence action against VERPE in % [22]: 80%
- Post-emergence action against ORYSA in % (Oryza sativa (ORYSA); 20 g/ha, effect vs untreated controls): 0%
- Post-emergence action against ORYSA in % (Oryza sativa (ORYSA); 80 g/ha, effect in comparison to untreated controls): 10%
- Post-emergence action against TRZAS in % [23]: 0%
- Post-emergence action against ZEAMX in % (crop plant compatibility) (Zea mays (ZEAMX)): 10%
